The subject of this assay is HBsAg. Put plainly: HBsAg assay (CLIA of secreted HBsAg in HepG2.2.15 culture supernatant). It counts as cell-based, HBV. The following applies: Hepatitis B virus. As for the experimental part:
HepG2.2.15 cells (Acs et al. Proc Natl Acad Sci USA, 84, (1987), 4641-4), a constitutively HBV-expressing cell line were cultured in DMEM+Glutamax-I medium (Invitrogen, Carlsbad, Calif., USA), supplemented with 10% fetal bovine serum (Invitrogen) and G418 (Invitrogen) at a final concentration of 200 mg/L and maintained in 5% CO2 at 37° C.
HepG2.2.15 cells were seeded in duplicate into white, 96-well plates at 1.5×10^4 cells/well. The cells were treated with a three-fold serial dilution series of the compounds in DMSO. The final DMSO concentration in all wells was 1% and DMSO was used as no drug control.
The HBsAg chemiluminescence immunoassay (CLIA) kit (Autobio Diagnostics Co., Zhengzhou, China, Catalog number: CL0310-2) was used to measure the levels of secreted HBV antigens semi-quantitatively. For the detection 50 μL/well culture supernatant was used and HBsAg was quantified using HBsAg chemiluminescence immunoassay (CLIA) kit (Autobio Diagnostics Co., Zhengzhou, China, Catalog number: CL0310-2), 50 μl of the supernatant was transferred to the CLIA assay plate and 50 μL of enzyme conjugate reagent was added into each well. The plates were sealed and gently agitated for 1 hour at room temperature. The supernatant-enzyme-mixture was discarded and wells were washed 6 times with 300 μL of PBS. The residual liquid was removed by plating the CLIA plate right side down on absorbent tissue paper. 25 μL of substrates A and B were added to each well. Luminance was measured using a luminometer (Mithras LB 940 Multimode Microplate Reader) after 10 minutes incubation. Dose-response curves were generated and the IC50 value was extrapolated by using the E-WorkBook Suite (ID Business Solutions Ltd., Guildford, UK).
The compounds of the present invention were tested for their capacity to inhibit HBsAg as described herein.

For the compound `COCCCOc1cc2c(cc1OC)-c1cc(=O)c(C(=O)Nc3nnn[nH]3)cn1C(C(C)(C)C)C2` (centres unmarked) [Example 32, 6-tert-butyl-10-methoxy-9-(3-methoxypropoxy)-2-oxo-N-(1H-tetrazol-5-yl)-6,7-dihydrobenzo[a]quinolizine-3-carboxamide], inhibition was half-maximal at 0.38 µM (IC50).
To `CCC1Cc2cc(OCCCOC)c(OC)cc2-c2cc(=O)c(CN(C)C)cn21` (centres unmarked) [Example 28, 3-[(dimethylamino)methyl]-6-ethyl-10-methoxy-9-(3-methoxypropoxy)-6,7-dihydrobenzo[a]quinolizin-2-one] belongs 3.7 µM; to `CCC1Cc2cc(OCCCOC)c(OC)cc2-c2cc(=O)c(COC)cn21` (centres unmarked) [Example 29, 6-ethyl-10-methoxy-3-(methoxymethyl)-9-(3-methoxypropoxy)-6,7-dihydrobenzo[a]quinolizin-2-one], 1.5 µM; to `CCC1Cc2cc(OCc3ccccc3)c(OC)cc2-c2cc(=O)c(C(=O)NS(C)(=O)=O)cn21` (centres unmarked) [Example 4, 9-benzyloxy-6-ethyl-10-methoxy-N-methylsulfonyl-2-oxo-6,7-dihydrobenzo[a]quinolizine-3-carboxamide], 0.92 µM.
To `COCCCOc1cc2c(cc1OC)-c1cc(=O)c(C(=O)Nc3nnn[nH]3)cn1C(C1CCC1)C2` (centres unmarked) [Example 33, 6-cyclobutyl-10-methoxy-9-(3-methoxypropoxy)-2-oxo-N-(1H-tetrazol-5-yl)-6,7-dihydrobenzo[a]quinolizine-3-carboxamide] belongs 1 µM; to `CCC1Cc2cc(OCCCOC)c(OC)cc2-c2cc(=O)c(C(=O)NC(C)COC)cn21` (centres unmarked) [Example 16, 6-ethyl-10-methoxy-N-(2-methoxy-1-methyl-ethyl)-9-(3-methoxypropoxy)-2-oxo-6,7-dihydrobenzo[a]quinolizine-3-carboxamide], 18.4 µM; to `CCC1Cc2cc(OCCCOC)c(OC)cc2-c2cc(=O)c(CN3CCCCC3)cn21` (centres unmarked) [Example 24, 6-ethyl-10-methoxy-9-(3-methoxypropoxy)-3-(1-piperidylmethyl)-6,7-dihydrobenzo[a]quinolizin-2-one], 12.6 µM.
Take `CCC1Cc2cc(OCCCOC)c(OC)cc2-c2cc(=O)c(C(=O)NCc3ccccc3)cn21` (centres unmarked) [Example 15, N-benzyl-6-ethyl-10-methoxy-9-(3-methoxypropoxy)-2-oxo-6,7-dihydrobenzo[a]quinolizine-3-carboxamide]: the IC50 (in general, the concentration at which inhibition is half-maximal) was found to be 26.7 µM.
Regarding `CCC1Cc2cc(OCCCOC)c(OC)cc2-c2cc(=O)c(CNC)cn21` (centres unmarked) [Example 27, 6-ethyl-10-methoxy-9-(3-methoxypropoxy)-3-(methylaminomethyl)-6,7-dihydrobenzo[a]quinolizin-2-one], the IC50 amounted to 15.8 µM.
To `CC[C@@H]1Cc2cc(OC)c(OC)cc2-c2cc(=O)c(C(=O)Nc3nnn[nH]3)cn21` [Example 31, (6R)-6-ethyl-9,10-dimethoxy-2-oxo-N-(1H-tetrazol-5-yl)-6,7-dihydrobenzo[a]quinolizine-3-carboxamide] belongs 44.1 µM.
On to `COCCCOc1cc2c(cc1Cl)-c1cc(=O)c(C(=O)Nc3nnn[nH]3)cn1[C@H](C(C)C)C2` [Example 38, (+)-10-chloro-6-isopropyl-9-(3-methoxypropoxy)-2-oxo-N-(1H-tetrazol-5-yl)-6,7-dihydrobenzo[a]quinolizine-3-carboxamide], for which the midpoint of inhibition, the IC50, lay at 2.3 µM.
In turn, `CCC1Cc2cc(OCc3ccccc3)c(OC)cc2-c2cc(=O)c(C(=O)NO)cn21` (centres unmarked) [Example 10, 9-benzyloxy-6-ethyl-10-methoxy-2-oxo-6,7-dihydrobenzo[a]quinolizine-3-carbohydroxamic Acid] showed an IC50 of 20.3 µM.
Regarding `CCC1Cc2cc(OCC3CC3)c(OC)cc2-c2cc(=O)c(C(=O)NC(C)COC)cn21` (centres unmarked) [Example 19, 9-(cyclopropylmethoxy)-6-ethyl-10-methoxy-N-(2-methoxy-1-methyl-ethyl)-2-oxo-6,7-dihydrobenzo[a]quinolizine-3-carboxamide], 8 µM corresponded to half-maximal inhibition (IC50).
`CCC1Cc2cc(OCCCOC)c(OC)cc2-c2cc(=O)c(CO)cn21` (centres unmarked) [Example 20, 6-ethyl-3-(hydroxymethyl)-10-methoxy-9-(3-methoxy-propoxy)-6,7-dihydrobenzo[a]quinolizin-2-one] gave an IC50 of 22.3 µM.
`COCCCOc1cc2c(cc1OC)-c1cc(=O)c(C(=O)Nc3nnn[nH]3)cn1C(C(C)C)C2` (centres unmarked) [Example 36, 6-isopropyl-10-methoxy-9-(3-methoxypropoxy)-2-oxo-N-(1H-tetrazol-5-yl)-6,7-dihydrobenzo[a]quinolizine-3-carboxamide] gave an IC50 of 5.5 µM.
In turn, `CCC1Cc2cc(OCc3ccccc3)c(OC)cc2-c2cc(=O)c(C(=O)NCc3ccccc3)cn21` (centres unmarked) [Example 1, N-benzyl-9-benzyloxy-6-ethyl-10-methoxy-2-oxo-6,7-dihydrobenzo[a]quinolizine-3-carboxamide] yielded an IC50 of 26.2 µM.
To `CCC1Cc2cc(OCCCOC)c(OC)cc2-c2cc(=O)c(C(=O)N3CCOC(C(=O)O)C3)cn21` (centres unmarked) [Example 13, 4-[6-ethyl-10-methoxy-9-(3-methoxypropoxy)-2-oxo-6,7-dihydrobenzo[a]quinolizine-3-carbonyl]morpholine-2-carboxylic Acid] belongs 36.6 µM; to `CCC1Cc2cc(OCCCOC)c(OC)cc2-c2cc(=O)c(CN3CCCC3C(=O)O)cn21` (centres unmarked) [Example 23, 1-[[6-ethyl-10-methoxy-9-(3-methoxypropoxy)-2-oxo-6,7-dihydrobenzo[a]quinolizin-3-yl]methyl]pyrrolidine-2-carboxylic Acid], 17.3 µM; to `CCOc1cc2c(cc1OC)-c1cc(=O)c(C(=O)NC(C)COC)cn1C(CC)C2` (centres unmarked) [Example 17, 9-ethoxy-6-ethyl-10-methoxy-N-(2-methoxy-1-methyl-ethyl)-2-oxo-6,7-dihydrobenzo[a]quinolizine-3-carboxamide], 2.2 µM.
With `COCCCOc1cc2c(cc1Cl)-c1cc(=O)c(C(=O)Nc3nnn[nH]3)cn1C(C(C)C)C2` (centres unmarked) [Example 37, 10-chloro-6-isopropyl-9-(3-methoxypropoxy)-2-oxo-N-(1H-tetrazol-5-yl)-6,7-dihydrobenzo[a]quinolizine-3-carboxamide] the figure was 5.9 µM.
In turn, `CCC1Cc2cc(OCCCOC)c(OC)cc2-c2cc(=O)c(CN3CCOCC3C(=O)O)cn21` (centres unmarked) [Example 21, 4-[[6-ethyl-10-methoxy-9-(3-methoxypropoxy)-2-oxo-6,7-dihydrobenzo[a]quinolizin-3-yl]methyl]morpholine-3-carboxylic Acid] registered an IC50 of 19.4 µM.
`CCC1Cc2cc(OCCCOC)c(OC)cc2-c2cc(=O)c(CN(C)CC(=O)O)cn21` (centres unmarked) [Example 30, 2-[[6-ethyl-10-methoxy-9-(3-methoxypropoxy)-2-oxo-6,7-dihydrobenzo[a]quinolizin-3-yl]methyl-methyl-amino]acetic Acid] had an IC50 of 16.9 µM.
`CCC1Cc2cc(OCCCOC)c(OC)cc2-c2cc(=O)c(CN3CCOCC3)cn21` (centres unmarked) [Example 26, 6-ethyl-10-methoxy-9-(3-methoxypropoxy)-3-(morpholinomethyl)-6,7-dihydrobenzo[a]quinolizin-2-one] returned an IC50 of 16.2 µM.
With `CCC(C)NC(=O)c1cn2c(cc1=O)-c1cc(OC)c(OCc3ccccc3)cc1CC2CC` (centres unmarked) [Example 9, 9-benzyloxy-6-ethyl-10-methoxy-2-oxo-N-sec-butyl-6,7-dihydrobenzo[a]quinolizine-3-carboxamide] the figure was 5.4 µM; with `COc1cc2c(cc1OC)-c1cc(=O)c(C(=O)Nc3nnn[nH]3)cn1C(CC(F)(F)F)C2` (centres unmarked) [Example 35, 9,10-dimethoxy-2-oxo-N-(1H-tetrazol-5-yl)-6-(2,2,2-trifluoroethyl)-6,7-dihydrobenzo[a]quinolizine-3-carboxamide], 12.9 µM; with `CCC1Cc2cc(OCCCOC)c(OC)cc2-c2cc(=O)c(CN3CCCC3)cn21` (centres unmarked) [Example 25, 6-ethyl-10-methoxy-9-(3-methoxypropoxy)-3-(pyrrolidin-1-ylmethyl)-6,7-dihydrobenzo[a]quinolizin-2-one], 16.4 µM.
`CCC1Cc2cc(OCCCOC)c(OC)cc2-c2cc(=O)c(CN3CCCCC3C(=O)O)cn21` (centres unmarked) [Example 22, 1-[[6-ethyl-10-methoxy-9-(3-methoxypropoxy)-2-oxo-6,7-dihydrobenzo[a]quinolizin-3-yl]methyl]piperidine-2-carboxylic Acid] gave an IC50 of 43.2 µM.
In turn, `CCC1Cc2cc(OCc3ccccc3)c(OC)cc2-c2cc(=O)c(C(=O)NC(C)COC)cn21` (centres unmarked) [Example 3, 9-benzyloxy-6-ethyl-10-methoxy-N-(2-methoxy-1-methyl-ethyl)-2-oxo-6,7-dihydrobenzo[a]quinolizine-3-carboxamide] had an IC50 of 31 µM.
In the case of `CCC1Cc2cc(OCC(C)C)c(OC)cc2-c2cc(=O)c(C(=O)NC(C)COC)cn21` (centres unmarked) [Example 18, 6-ethyl-9-isobutoxy-10-methoxy-N-(2-methoxy-1-methyl-ethyl)-2-oxo-6,7-dihydrobenzo[a]quinolizine-3-carboxamide], the IC50 was 4.9 µM.

(Values after patent publication US9920049B2 (priority 2014, dated 2018).)
